Tested on: PBMC
Test: 193 ssRNA 4mer-motif library screen: IL-12 (IL-12p40) production in PBMC of six donors, poly-L-Arg complexation, ELISA at 44 hours, IL-12 index and adjusted IL-12 index
Assay type: cell-based, human
Design: key to Adjusted IL-12 index Mean: IL-12 index (ratio to 9.2sense) minus donor mean, averaged over 6 donors
Conditions: 193 ssRNA oligonucleotide library; data from six individual donors summarized; ascending order
Procedure: FIG. 9: PBMC of six different healthy donors were isolated and stimulated with poly-L-arginine complexed ssRNA oligonucleotides in duplicates. 44 hours after stimulation IL-12p40 production was assessed in supernatant via ELISA. For all tested ssRNA oligonucleotides (table 3), the mean values of the measured duplicates were normalized to the positive control ssRNA oligonucleotide 9.2sense (5′-AGCUUAACCUGUCCUUCAA (SEQ ID NO: 194)) by dividing the mean value of tested oligonucleotide by the mean value of 9.2sense (=IL-12 index of a given oligonucleotide). Next, all individual IL-12 indices were adjusted to the mean value of all IL-12 indices by subtracting the mean value of all IL-12 indices from the individual IL-12 index of a given oligonucleotide (=adjusted IL-12 index). Data from six individual donors were summarized and were assorted in ascending order displaying the corresponding SEM (for a complete listing including numerical data see table 4). FIG. 9A discloses SEQ ID NOS 460-509, respectively, in order of appearance. FIG. 9B discloses SEQ ID NOS 510-559, respectively, in order of appearance. FIG. 9C discloses SEQ ID NOS 560-609, respectively, in order of appearance. FIG. 9D discloses SEQ ID NOS 610-652, respectively, in order of appearance.
All 193 ssRNA oligonucleotides were tested on PBMC of six individual healthy donors using poly-L-Arg for complexation. At 44 hours after stimulation with RNA oligonucleotides, supernatants were collected and IL-12 production was measured by ELISA. Prior to statistical analysis the raw data were processed as follows: for each cell culture plate the mean IL-12 value of the experimental duplicates for each tested ssRNA oligonucleotide were normalized to the ssRNA oligonucleotide RNA9.2sense (5′-AGCUUAACCUGUCCUUCAA-3′ (SEQ ID NO: 194)). This standard RNA oligonucleotide was included as a positive control on all cell culture plates. Normalization was performed by calculating the ratio of IL-12 induced by the tested oligonucleotide and IL-12 induced by the standard oligonucleotide RNA9.2sense. Thus, for each tested oligonucleotide in an individual donor a mean ratio of IL-12 induction was obtained. In the following, this mean of the ratios is referred to as IL-12 index (one value of IL-12 index per donor). […] The corresponding IL-12 index of oligonucleotide ANP175 for donor 3 was calculated to be 1.90 (=1725 pg/ml divided by 908 pg/ml).
Next, the means of all IL-12 indices for every individual donor were calculated. Then the adjusted IL-12 indices were calculated as IL-12 index minus the mean of all IL-12 indices of one individual donor. […] The adjusted IL-12 index of ANP175 was calculated: 1.90 minus 0.44=1.46. The adjusted IL-12 indices from all six donors were summarized by calculating the means and the corresponding standard error of mean. The data are depicted in ascending order (FIG. 9A, B, C, D). The adjusted IL-12 indices of the top thirty ssRNA oligonucleotides of all six donors were compared using a two-tailed Student's t-test (FIG. 10). For most combinations tested, a significant difference was observed when the interval between the analyzed pairs was at least eight or nine places in the assortment.

Sequence	Adjusted IL-12 index Mean
AAAAAAAGCGUAAAAAAAA (RNA, backbone not given here) [ANP-Oligo 118]	0.1
AAAAAAAGCUCAAAAAAAA (RNA, backbone not given here) [ANP-Oligo 119]	−0.48
AAAAAAAGCUGAAAAAAAA (RNA, backbone not given here) [ANP-Oligo 120]	−0.38
AAAAAAAGCUUAAAAAAAA (RNA, backbone not given here) [ANP-Oligo 121]	0.24
AAAAAAAGGACAAAAAAAA (RNA, backbone not given here) [ANP-Oligo 122]	−0.43
AAAAAAAGGAGAAAAAAAA (RNA, backbone not given here) [ANP-Oligo 123]	−0.51
AAAAAAAGGAUAAAAAAAA (RNA, backbone not given here) [ANP-Oligo 124]	0.63
AAAAAAAGGCCAAAAAAAA (RNA, backbone not given here) [ANP-Oligo 125]	−0.54
AAAAAAAGGCGAAAAAAAA (RNA, backbone not given here) [ANP-Oligo 126]	−0.54
AAAAAAAGGCUAAAAAAAA (RNA, backbone not given here) [ANP-Oligo 127]	0.11
AAAAAAAGGGCAAAAAAAA (RNA, backbone not given here) [ANP-Oligo 128]	−0.64
AAAAAAAGGGGAAAAAAAA (RNA, backbone not given here) [ANP-Oligo 129]	−0.51
AAAAAAAGGGUAAAAAAAA (RNA, backbone not given here) [ANP-Oligo 130]	−0.44
AAAAAAAGGUCAAAAAAAA (RNA, backbone not given here) [ANP-Oligo 131]	0.12
AAAAAAAGGUGAAAAAAAA (RNA, backbone not given here) [ANP-Oligo 132]	0.47
AAAAAAAGGUUAAAAAAAA (RNA, backbone not given here) [ANP-Oligo 133]	1.51
AAAAAAAGUACAAAAAAAA (RNA, backbone not given here) [ANP-Oligo 134]	0.42
AAAAAAAGUAGAAAAAAAA (RNA, backbone not given here) [ANP-Oligo 135]	0.67
AAAAAAAGUAUAAAAAAAA (RNA, backbone not given here) [ANP-Oligo 136]	1.04
AAAAAAAGUCCAAAAAAAA (RNA, backbone not given here) [ANP-Oligo 137]	−0.27
AAAAAAAGUCGAAAAAAAA (RNA, backbone not given here) [ANP-Oligo 138]	0.02
AAAAAAAGUCUAAAAAAAA (RNA, backbone not given here) [ANP-Oligo 139]	0.05
AAAAAAAGUGCAAAAAAAA (RNA, backbone not given here) [ANP-Oligo 140]	0.99
AAAAAAAGUGGAAAAAAAA (RNA, backbone not given here) [ANP-Oligo 141]	0.5
AAAAAAAGUGUAAAAAAAA (RNA, backbone not given here) [ANP-Oligo 142]	1.23
AAAAAAAGUUCAAAAAAAA (RNA, backbone not given here) [ANP-Oligo 143]	0.56
AAAAAAAGUUGAAAAAAAA (RNA, backbone not given here) [ANP-Oligo 144]	4.39
AAAAAAAGUUUAAAAAAAA (RNA, backbone not given here) [ANP-Oligo 145]	1.32
AAAAAAAUAACAAAAAAAA (RNA, backbone not given here) [ANP-Oligo 146]	−0.16
AAAAAAAUAAGAAAAAAAA (RNA, backbone not given here) [ANP-Oligo 147]	0.27

Source: patent publication US8815503B2, “Compositions and methods for immunostimulatory RNA oligonucleotides” (Rheinische Friedrich-Wilhelms-Universitat Bonn, priority 2005, dated 2014)
